Experiments:
[1] = test system: K562 (chronic myelogenous leukaemia); experiment: Effect on tumor cell lines, viable cell count by trypan blue exclusion (Latham et al.): K562; type: cell-based; conditions: Homo sapiens, K562, 96 h, K562 chronic myelogenous leukaemia cells, viable cell count 96 hours after treatment
DU145 (prostate cancer) = experiment: Effect on tumor cell lines, viable cell count by trypan blue exclusion (Latham et al.): DU145; type: cell-based; conditions: Homo sapiens, DU-145, 96 h, DU145 prostate cancer cells, viable cell count 96 hours after treatment
DLD1 (colon carcinoma) = experiment: Effect on tumor cell lines, viable cell count by trypan blue exclusion (Latham et al.): DLD1; type: cell-based; conditions: Homo sapiens, DLD-1, DLD1 colon carcinoma cells, viable cell count 96 hours after treatment
Description: (§1) The effect of the compounds of the invention on tumor cells was determined by the assay described by Latham et al., Oncogene 12:827-837 (1996). Tumor cells DU145 (prostate cancer), K562 (chronic myelogenous leukaemia), BT20 (breast carcinoma), H157 (non small cell lung carcinoma), or DLD1 (colon carcinoma) were plated in 6-well dishes at a cell density of 1.0×10^5 cells per 35-mm^2 well. The plated cells were treated 24 hours later with a compound of the invention dissolved in DMSO at multiple concentrations ranging from 100 nM to 10 μM. The total number of viable cells was determined 96 hours later by trypsinizing the wells and counting the number of viable cells, as determined by trypan blue exclusion, using a hemacytometer. Normal HFL cells were treated with the same compounds under the same conditions of concentration and time.

[2] = test system: H157 (non small cell lung carcinoma); experiment: Effect on tumor cell lines, viable cell count by trypan blue exclusion (Latham et al.): H157; type: cell-based; conditions: Homo sapiens, NCI-H157, H157 non small cell lung carcinoma cells, viable cell count 96 hours after treatment
Description: as §1

BT20 (breast carcinoma) = experiment: Effect on tumor cell lines, viable cell count by trypan blue exclusion (Latham et al.): BT20; type: cell-based; conditions: Homo sapiens, BT-20, BT20 breast carcinoma cells, viable cell count 96 hours after treatment
Description: as §1

Structure (SMILES) | IC50 [1] [µM] | melting point [°C] | IC50 (DU145 (prostate cancer)) [µM] | IC50 (DLD1 (colon carcinoma)) [µM] | IC50 [2] [µM] | IC50 (BT20 (breast carcinoma)) [µM]
N#C/C(=C\c1c[nH]c2ccccc12)S(=O)(=O)Nc1ccccc1Oc1ccccc1 [Example 197] | 50 to 100 | 210 to 212 | 50 to 100 | – | – | –
COc1cc(OC)c(/C=C(\C#N)S(=O)(=O)Cc2ccc(OC)c(F)c2)c(OC)c1 [Example 39] | 1 to 10 | 162 to 164 | 1 to 10 | – | – | –
N#C/C(=C\c1c[nH]c2ccc(Br)cc12)S(=O)(=O)Cc1ccc(Cl)cc1Cl [Example 71] | 50 to 100 | 264 to 275 | 50 to 100 | – | – | –
COc1ccc(NS(=O)(=O)/C(C#N)=C/c2ccccc2OCc2ccccc2)cc1 [Example 277] | 10 to 25 | 111 to 112 | 10 to 25 | – | – | –
N#C/C(=C\c1ccc(Cl)cc1)S(=O)(=O)Cc1ccc(Cl)cc1Cl [Example 100] | > 100 | 119 to 125 | > 100 | – | – | –
CN(C)c1ccc(/C=C(\C#N)S(=O)(=O)Nc2ccc(Br)cc2)cc1 [Example 216] | 25 to 50 | 190 to 192 | 50 to 100 | – | – | –
N#C/C(=C\c1ccc(C#N)cc1F)S(=O)(=O)Cc1ccc(Br)cc1 [Example 16] | 10 | 202 to 204 | 75 | – | – | –
CC(=O)Oc1ccc(/C=C(\C#N)S(=O)(=O)Cc2ccc(Cl)cc2)cc1 [Example 57] | 25 to 50 | 192 to 202 | 25 to 50 | – | – | –
N#C/C(=C\c1ccoc1)S(=O)(=O)Cc1cccc(Br)c1 [Example 115] | > 100 | 128 to 132 | > 100 | – | – | –
COc1ccc(CS(=O)(=O)/C(C#N)=C/c2ccc(OC)c(OC)c2)cc1 [Example 148] | 25 to 50 | 155 to 160 | 50 to 100 | – | – | –

Continued, values first:

IC50 [1] [µM] | melting point [°C] | IC50 (DU145 (prostate cancer)) [µM] | IC50 (DLD1 (colon carcinoma)) [µM] | IC50 [2] [µM] | IC50 (BT20 (breast carcinoma)) [µM] | Structure (SMILES)
50 to 100 | 83 to 85 | > 100 | – | – | – | N#C/C(=C\c1ccc(O)c([N+](=O)[O-])c1)S(=O)(=O)Nc1ccccc1Oc1ccccc1 [Example 209]
> 100 | 118 to 121 | > 100 | – | – | – | COc1ccc(NS(=O)(=O)/C(C#N)=C/c2ccc(C)s2)cc1 [Example 283]
– | 166 to 168 | > 20 | > 20 | > 20 | > 20 | COc1ccc(CS(=O)(=O)/C(=C/c2c(OC)cccc2OC)C(N)=O)cc1 [Example 173]
50 to 100 | 108 to 110 | > 100 | – | – | – | N#C/C(=C\c1ccc(Cl)cc1)S(=O)(=O)Nc1ccc(F)cc1 [Example 248]
10 to 25 | 172 to 182 | 25 to 50 | – | – | – | N#C/C(=C\c1c[nH]c2ccc(Cl)cc12)S(=O)(=O)Cc1ccc(Cl)cc1 [Example 73]
25 to 50 | 126 to 131 | 50 to 100 | – | – | – | CCOc1ccc(/C=C(\C#N)S(=O)(=O)Cc2ccc(Cl)cc2Cl)cc1OC [Example 94]
50 to 100 | 125 to 127 | 50 to 100 | – | – | – | COc1ccc(NS(=O)(=O)/C(C#N)=C/c2cc(C)ccc2C)cc1 [Example 282]
50 to 100 | 155 to 169 | > 100 | – | – | – | CCOc1cc(/C=C(\C#N)S(=O)(=O)Cc2ccc(Cl)cc2)ccc1O [Example 54]
1 to 10 | 231 to 235 | 1 to 10 | – | – | – | Cc1ccc(NS(=O)(=O)/C(C#N)=C/c2c[nH]c3ccc(Br)cc23)c(C)c1 [Example 269]
> 100 | 152 to 154 | > 100 | – | – | – | Cc1ccc(NS(=O)(=O)/C(C#N)=C/c2ccc(O)cc2)c(C)c1 [Example 271]
50 to 100 | 142 to 149 | > 100 | – | – | – | Cc1ccc(C)c(/C=C(\C#N)S(=O)(=O)Cc2ccc(Cl)cc2Cl)c1 [Example 96]
> 100 | 159 to 163 | > 100 | – | – | – | N#C/C(=C\c1ccccc1Cl)S(=O)(=O)Cc1ccc(F)cc1 [Example 145]
1 to 10 | 123 to 126 | 25 to 50 | – | – | – | Cc1ccc(C)c(/C=C(\C#N)S(=O)(=O)Cc2ccc(Cl)cc2)c1 [Example 40]
50 to 100 | 132 to 135 | > 100 | – | – | – | N#C/C(=C\c1cccc(O)c1)S(=O)(=O)Cc1ccccc1 [Example 124]
